How the values were obtained:
[1] = tested on: pancreatic cancer cells (MIAPACA2); experiment: Confocal fluorescence imaging of in situ GNC synthesis; format: cell-based, human; conditions: MIAPACA2; 1 mM, 24 hours; 561 nm excitation, 610 nm emission
Method: FIG. 4 presents fluorescence confocal images of non-cancerous (HPDE) and cancerous (MIAPaCa2) pancreatic cells treated with either 1 mM of Au^3+ gold ions or premade albumin-GNCs at 1 mM Au^0 for 24 hours. (From left to right) Cells: untreated; treated with albumin-GNCs; treated with Au^3+ gold ions. […] The strong red fluorescence in cancer cells indicated intracellular synthesis of GNCs from gold ions. Scale bars are 25 μm.
We compared in situ synthesis of GNCs by pancreatic cancer cells (MIAPACA2) and pancreatic noncancerous cells (HPDE) (FIG. 4). Confocal fluorescence images were obtained using a Leica TCS SP8 confocal microscope with 561 nm excitation and 610 nm emission optimized for detection of GNCs.

PANC1 cells = experiment: Optimization of conditions for intracellular synthesis of fluorescent GNCs; format: cell-based, human
Method: 2.3. Optimization of conditions for intracellular synthesis of GNCs. We determined optimal conditions for intracellular synthesis of fluorescent GNCs by PANC1 cells through variations in (1) how long cells condition media before addition of Au^3+ ions (FIG. 11), (2) the concentration of FBS within the media (FIG. 10), (3) concentration of added Au^3+ ions (FIGS. 13), and (4) incubation time (FIG. 12). We used the following standard conditions: 24 hr cell conditioning time, 10% FBS, 1.00 mM Au^3+, and 24 hr Au^3+ treatment duration. […] We observed significant formation of GNCs at Au^3+ concentrations between 0.20-0.75 mM, with fluorescence reduced at concentrations greater than 1.00 mM, possibly, due to formation of larger non-fluorescent gold nanoparticles (GNPs). We observed fluorescence as early as 30 minutes after addition of gold atoms with a significant increase up to 4 hours.

PANC1 pancreatic cancer [2] = experiment: JC-1 mitochondrial depolarization assay (cell viability); format: cell-based; conditions: 0.20-1.50 mM, 24 hour
Method: FIG. 19 reports cell viability as a function of 24 hour Au^3+ treatments at varied concentrations determined via JC-1 mitochondrial depolarization assay and in full cell media to PANC1 pancreatic cancer.
The JC-1 assay measures the charge potential of the mitochondria of cells through the fluorometric ratio of the JC-1 dye (ThermoFisher Scientific, Waltham, Mass.). JC-1 is a cationic carbocyanine dye that accumulates in mitochondria. The dye exists as a monomer at low concentrations and yields green fluorescence, similar to fluorescein. […] These characteristics make JC-1 a sensitive marker for mitochondrial membrane potential. In other words, mitochondrial depolarization is indicated by a decrease in the red/green fluorescence intensity ratio. Mitochondrial depolarization is an indicator of reduced cell viability.
2.4. Characterize cytotoxicity of gold atom treatment. An MTS viability assay was used with 0-2.0 mM Au^3+ dose range. […] MTS assay was not usable at concentrations >0.75 mM Au^3+ due to intracellular formation of larger GNPs and their absorbance interfering with the MTS results. Therefore, at higher Au^3+ we switched to AO/PI live-dead staining (FIG. 15) and JC-1 mitochondrial depolarization assays (FIG. 19). JC-1 assay indicated cell viability ˜80% for concentrations between 0.20-1.50 mM Au^3+.

[3] = tested on: PANC1 xenografts in nu/nu mice; experiment: Tumor volume after 10 Gy X-ray irradiation in xenografts; format: in vivo; conditions: 48 hours after treatment with 1.00 mM
PANC1 pancreatic cancer [4] = experiment: gamma H2AX foci quantification of double stranded DNA breaks; format: cell-based, human
Method: FIG. 21 reports on a mechanistic study of radiosensitization quantifying gamma H2AX foci through fluorescent antibody staining measured at 0, 4, and 24 hours, resulting from 24 hour 0.20 mM Au^3+ treatments (lower three) compared against non-treated (upper three) combined with either 0 Gy or 8 Gy x-ray irradiation. Treatments are in full cell media to PANC1 pancreatic cancer.
2.5. Evaluate radiosensitization efficacy and radiosensitization mechanisms for in situ synthetized GNCs. Based on the studies described in Sections 2.3-2.4, we selected the following conditions for radiosensitization studies in cell culture: 24 hr media conditioning by cells, 10% FBS (v/v) within, and 0.20 mM Au^3+ for 24 hrs.
Further, we characterized the mechanisms of radiosensitization through (i) quantification of double stranded DNA breaks via y-H2AX Foci (FIG. 21), (ii) mitochondrial polarization via JC-1 assay (FIG. 22), (iii) NADP total (FIG. 23) and NADP:NADPH ratio (FIG. 24) via NADP(H) assay, and (iv) peroxidation production via TBARS assay (FIG. 25).

[5] = tested on: LTPA pancreatic cancer cells; experiment: Clonogenic assay after X-ray irradiation; format: cell-based; conditions: 0.1 mM, 24 hours; for radiosensitization effect as compared to untreated control: cancer cells, X-rays 0 to 8 Gy
Method: (§1) Radiosensitization due to intracellular GNC formation (i.e., delivery of Au^3+) was compared between cancerous and non-cancerous cells using a standard clonal assay. For radiosensitization, cells were incubated with 0.1 mM of buffered chloroauric acid in cell culture media for 24 hours. Then, the cells were lifted and plated in 30 mm culture dishes at optimized cell densities for observation of colony formation following irradiation with X-rays at dosages ranging from 0 to 8 Gy (XRAD SmART). […] The radiosensitization results correlated well with the fluorescence images showing greater production of GNCs by cancerous cells (FIG. 6A-6B). For LTPA pancreatic cancer cells the surviving fraction values decreased by a factor of 2.3x and 3.5x for radiation of 4 Gy and 6 Gy, respectively, in cells treated with gold atoms compared to untreated control (FIG. 6B). This relative decrease in surviving fraction is similar or better than previously reported values observed in cells treated with pre-synthetized GNPs. We believe that the observed improvement in radiation efficiency in killing cancer cells might be associated with a strong nuclear localization of in situ synthetized GNCs.

[6] = tested on: pancreatic non-cancerous cells (MS1); experiment: Clonogenic assay after X-ray irradiation; format: cell-based; conditions: 0.1 mM, 24 hours, X-rays 0 to 8 Gy
Method: as §1

[7] = tested on: pancreatic cancer cells (LTPA) vs pancreatic non-cancerous cells (MS1); experiment: Confocal fluorescence imaging of intracellular GNC formation, cancerous vs non-cancerous cells; format: cell-based
Method: Hoechst 33342 stain was used for nuclear contrast. Red channel was used for detection of GNCs with 610 nm emission and 561 nm laser excitation. Scale bars are 25 μm.
Our initial evaluation of intracellular gold nanocluster formation was performed with pancreatic cancer cells (LTPA) and pancreatic non-cancerous cells (MS1) (FIG. 6A-6B). […] Live cell nuclear stain, Hoechst 33342, was used to define the location of nuclei.
as §1, with “This relative decrease in surviving fraction is similar or better than previously reported values observed in cells treated with pre-synthetized GNPs. We believe that the observed improvement in radiation efficiency in killing cancer cells might be associated with a strong nuclear localization of in situ synthetized GNCs.” left out

[8] = listed as buffered chloroauric acid

[Au+3].[Cl-].[Cl-].[Cl-].[Cl-].[H+] [Au^3+, chloroauric acid]
GNC fluorescence / GNC formation [1]: ubiquitous | earliest time at which fluorescence was observed after addition (PANC1 cells; 1.00 mM, 10% FBS): 30 min | time up to which fluorescence increased significantly (PANC1 cells; 1.00 mM, 10% FBS): up to 4 hours | Au^3+ concentrations at which fluorescence is reduced (PANC1 cells; 24 hr treatment, 10% FBS): greater than 1.00 mM | Au^3+ concentrations with significant formation of GNCs (PANC1 cells; 24 hr treatment, 10% FBS): 0.20 to 0.75 mM | change of GNC synthesis with duration of media conditioning or FBS concentration (PANC1 cells; media conditioning up to 72-hr, FBS 0-10% (v/v)): No significant changes | cell viability (JC-1) (PANC1 pancreatic cancer [2]): ~80% | radiosensitization effect by tumor volume measurements [3]: evidence of radiosensitization effect | fewer DNA breaks than in untreated control (PANC1 pancreatic cancer [4]; 4 hrs after 8 Gy irradiation, 0.20 mM, 24 hrs): 29% | repair of DNA breaks (PANC1 pancreatic cancer [4]; 24 hr post-irradiation, 8 Gy): no significant repair | factor of decrease of surviving fraction compared to untreated control ([5]; 4 Gy): 2.3 x | factor of decrease of surviving fraction compared to untreated control ([5]; 6 Gy): 3.5 x | radiosensitization effect as compared to untreated control [5]: significant radiosensitization effect | radiosensitization effect as compared to untreated control [5, 8]: significantly greater radiosensitization effect | radiosensitization in non-cancerous cells [6]: no radiosensitization | radiosensitization in non-cancerous cells [6, 8]: no significant radiosensitization | GNC formation in cancerous cells as compared to non-cancerous cells [7]: striking increase in GNC formation

— patent US20230256094A1, “CANCER RADIOSENSITIZATION BY IN SITU FORMATION OF GOLD NANOPARTICLES AND/OR GOLD NANOCLUSTERS” (BOARD OF REGENTS, THE UNIVERSITY OF TEXAS SYSTEM, priority 2020, published 2023)
